Each structure is given as a SMILES string.

In data set [1] the test system is acetylcholine effect on heart rate. The data set is described as follows: Inhibition of the effect of acetylcholine on heart rate in guinea pigs. Format: in vivo. Particulars: Cavia porcellus, iv, 5 min; guinea pig, acetylcholine 10 microgram/kg i.v. and i.a., 5 min after substance; read-out: -log ED50, Heart (heart rate) (converted). As for the experimental part: (§1) 5 minutes after the administration of the test substance, 10 microgram/kg of acetylcholine were simultaneously injected intravenously and intraarterially into anaesthetised guinea pigs. The heart rate was recorded directly by extracorporeal derivation of the ECG, the expiration resistance according to Konzett-Robler and contraction of the exposed bladder. In order to determine the inhibition of the acetylcholine activity on the organs under investigation, dosage/activity curves were recorded and from them -log ED50 values were determined.

Data set [2] deals with acetylcholine effect on bronchi. The data set is described as follows: Inhibition of the effect of acetylcholine on the bronchi in guinea pigs. Format: in vivo. Particulars: Cavia porcellus, iv, 5 min; guinea pig, acetylcholine 10 microgram/kg i.v. and i.a., 5 min after substance; read-out: -log ED50, Bronchi (converted). As for the experimental part:
as §1

Data set [3] has as its target T1, muscarinic receptors (submandibular gland) (Rattus norvegicus, UniProt P08483).
T1 construct: After the heart and submandibular gland and cerebral cortex had been removed; from tissue; host or cells: homogenate of rat submandibular gland
The data set is described as follows: Binding to muscarinic receptors, 3H-NMS displacement, submandibular gland. Also noted: species or system rat (male Sprague-Dawley). Particulars: for IC50: 0.3 nM 3H-NMS, 30° C., 45 min, pH 7.4, read-out: IC50 receptor binding test, Submandibular gland (SM); for Selectivity factor [drawing 24]: head is a drawing, values equal IC50 SM / IC50 H. As for the experimental part: (§2) The organs were donated by male Sprague-Dawley rats weighing 180-220 g After the heart and submandibular gland and cerebral cortex had been removed, all other steps were carried out in ice-cold Hepes HCl buffer (pH 7.4; 100 millimolar NaCl, 10 millimolar MgCl2). The whole heart was cut up with scissors. All the organs were then homogenised in a Potter apparatus.
(§3) For the binding test the homogenised organs were diluted as follows:
(§4) The homogenised organs were incubated at a given concentration of the radioligand and at a series of concentrations of the non-radioactive test substances in an Eppendorf centrifuge tube at 30° C. Incubation lasted 45 minutes. The radioligand used was 0.3 nanomolar ^3 H-N-methylscopolamine (^3 H-NMS). Incubation was ended by the addition of ice-cold buffer followed by vacuum filtration. The filters were rinsed with cold buffer and their radioactivity was determined. This represents the sum of specific and non-specific binding of ^3 H-NMS. The proportion of non-specific binding was defined as the radioactivity which was bound in the presence of 1 micromolar quinuclidinylbenzylate. Each measurement was taken four times. The IC50 values of the non-labelledtest substances were determined graphically. They represent that concentration of test substance at which the specific binding of ^3 H-NMS to the muscarinic receptors in the various organs was inhibited by 50%.

Data set [4] deals with muscarinic receptors (cerebral cortex). The data set is described as follows: Binding to muscarinic receptors, 3H-NMS displacement, cerebral cortex. Also noted: species or system rat (male Sprague-Dawley). Particulars: for IC50: 0.3 nM 3H-NMS, 30° C., 45 min, pH 7.4, read-out: IC50 receptor binding test, Cortex (C); for Selectivity factor [drawing 25]: head is a drawing, values equal IC50 C / IC50 H. As for the experimental part:
as §2, §3, §4

Another data set deals with T2, M2 (Rattus norvegicus, UniProt P10980).
T2 construct: from tissue; host or cells: heart of the living rat (in vivo)
T2 sequence (P10980 1-466): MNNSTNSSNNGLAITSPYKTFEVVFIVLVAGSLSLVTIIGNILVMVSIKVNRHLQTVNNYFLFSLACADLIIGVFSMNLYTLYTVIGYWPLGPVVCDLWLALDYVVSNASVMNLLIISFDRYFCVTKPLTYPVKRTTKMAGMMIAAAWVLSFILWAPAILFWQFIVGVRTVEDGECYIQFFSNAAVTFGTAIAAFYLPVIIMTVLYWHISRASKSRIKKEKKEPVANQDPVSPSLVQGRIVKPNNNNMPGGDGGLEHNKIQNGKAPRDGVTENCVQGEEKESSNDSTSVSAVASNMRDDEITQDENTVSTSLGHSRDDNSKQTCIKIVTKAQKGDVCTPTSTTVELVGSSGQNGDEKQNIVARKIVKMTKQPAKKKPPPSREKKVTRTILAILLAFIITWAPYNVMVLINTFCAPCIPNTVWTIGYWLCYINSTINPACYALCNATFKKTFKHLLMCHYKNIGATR
The data set is described as follows: M1/M2 selectivity in the rat: reduction of vagal bradycardia (M2). Format: in vivo, rat (male THOM). Particulars: iv, 5 min, i.v., 5 min before right vagus stimulation, read-out: -log ED50, Heart (vagal bradycardia, M2) (converted). As for the experimental part: The method used was described by Hammer and Giachetti (Life Sciences 31, 2991-2998 (1982)). 5 minutes after the intravenous injection of increasing doses of the substance, either the right vagus was electrically stimulated (frequency: 25 Hz; pulse width: 2 ms; duration of stimulus: 30s; voltage: supramaximal) or 0.3 mg/kg of McN-A-343 were intravenously injected into male THOM rats. The bradycardia caused by vagus stimulation and the rise in blood pressure caused by McN-A-343 were determined. The dosage of the substances which reduced either the vagal bradycardia (M2) or the rise in blood pressure (M1) by 50% was determined graphically. For the results see Table II.

In a further data set the target is T3, M1 (Rattus norvegicus, UniProt P08482).
T3 construct: from tissue; host or cells: living rat (in vivo; sympathetic ganglia by own knowledge)
T3 sequence (P08482 1-460): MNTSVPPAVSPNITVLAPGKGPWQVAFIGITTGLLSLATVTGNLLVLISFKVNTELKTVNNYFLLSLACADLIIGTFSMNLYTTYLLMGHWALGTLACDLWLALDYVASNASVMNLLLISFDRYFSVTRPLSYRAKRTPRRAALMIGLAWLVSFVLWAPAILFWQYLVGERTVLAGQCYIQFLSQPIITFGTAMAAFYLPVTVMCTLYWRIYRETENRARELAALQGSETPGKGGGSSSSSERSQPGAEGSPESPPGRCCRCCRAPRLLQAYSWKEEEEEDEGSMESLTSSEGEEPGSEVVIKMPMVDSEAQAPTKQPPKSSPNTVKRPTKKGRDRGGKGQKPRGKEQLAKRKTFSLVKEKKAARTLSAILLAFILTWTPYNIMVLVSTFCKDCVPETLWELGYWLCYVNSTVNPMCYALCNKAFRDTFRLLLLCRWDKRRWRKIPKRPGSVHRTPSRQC
The data set is described as follows: M1/M2 selectivity in the rat: reduction of McN-A-343 induced rise in blood pressure (M1). Format: in vivo, rat (male THOM). Particulars: iv, 5 min, i.v., 5 min before 0.3 mg/kg McN-A-343 i.v., read-out: -log ED50, Blood pressure (M1) (converted). As for the experimental part: The dosage of the substances which reduced either the vagal bradycardia (M2) or the rise in blood pressure (M1) by 50% was determined graphically. For the results see Table II.

For data set [5], the system named is acetylcholine effect on bladder. The data set is described as follows: Inhibition of the effect of acetylcholine on the bladder in guinea pigs. Format: in vivo. Particulars: Cavia porcellus, iv, 5 min; guinea pig, acetylcholine 10 microgram/kg i.v. and i.a., 5 min after substance; read-out: -log ED50, Bladder (converted). As for the experimental part:
as §1

The target in data set [6] is T4, muscarinic receptors (heart) (Rattus norvegicus, UniProt P10980).
T4 construct: The whole heart was cut up with scissors; All the organs were then homogenised in a Potter apparatus; from tissue; host or cells: homogenate of rat whole heart
T4 sequence (P10980 1-466): T2 sequence (P10980 1-466)
The data set is described as follows: Binding to muscarinic receptors, 3H-NMS displacement, heart. Also noted: species or system rat (male Sprague-Dawley). Particulars: for IC50: 0.3 nM 3H-NMS, 30° C., 45 min, pH 7.4, read-out: IC50 receptor binding test, Heart (H); for potency compared with compound D: Table I, receptor binding, same selectivity maintained. As for the experimental part: as §2, §3, §4

Another data set concerns secretion of saliva. The data set is described as follows: Salivation-inhibiting effect in the rat (pilocarpine). The class given is in vivo, rat (male THOM). Particulars: iv, urethane anaesthesia, pilocarpine 2 mg/kg s.c., read-out: -log ED50, Salivation inhibition (converted). As for the experimental part: The secretion of saliva was initiated by subcutaneous administration of 2 mg/kg of pilocarpine. The saliva was absorbed with blotting paper and the surface area covered was measured every 5 minutes by planimetry. The dosage of the substance which reduced the volume of saliva by 50% was determined graphically. For the results see Table II.

In a further data set the target is T5, histamine-H1 receptor (Rattus norvegicus, UniProt P31390).
T5 construct: whole rat brains were used without the cerebellum; from tissue; host or cells: membranes of whole rat brain without cerebellum
T5 sequence (P31390 whole entry): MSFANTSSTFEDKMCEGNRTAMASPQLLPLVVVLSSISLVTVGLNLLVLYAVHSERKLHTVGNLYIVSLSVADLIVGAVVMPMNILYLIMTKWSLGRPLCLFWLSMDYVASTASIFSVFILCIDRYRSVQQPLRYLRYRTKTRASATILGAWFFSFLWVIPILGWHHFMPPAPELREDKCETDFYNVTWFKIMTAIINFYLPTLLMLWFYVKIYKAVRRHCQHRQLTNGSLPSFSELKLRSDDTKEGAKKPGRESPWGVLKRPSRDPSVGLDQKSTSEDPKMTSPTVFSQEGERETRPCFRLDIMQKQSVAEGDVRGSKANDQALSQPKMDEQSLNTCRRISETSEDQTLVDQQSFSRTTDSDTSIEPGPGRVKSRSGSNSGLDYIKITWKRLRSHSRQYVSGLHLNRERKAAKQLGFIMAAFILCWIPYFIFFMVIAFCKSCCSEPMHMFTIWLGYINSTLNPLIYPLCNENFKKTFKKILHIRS
The data set is described as follows: Binding to the histamine-H1 receptor (3H-pyrilamine). Particulars: 2 nM 3H-pyrilamine, ambient temperature, 60 min, whole rat brain without cerebellum. As for the experimental part:
In these tests, whole rat brains were used without the cerebellum. The tissue was homogenised in a phosphate buffer pH 7.5 according to Sorensen using the Ultra-Turrax. The homogenised material was then washed twice and centrifuged at 50,000×g. The pellet was taken up in a dilution, based on the starting tissue, of 1:100. […] The reactions were also ended by vacuum filtration and the radioactivity of the filters was measured. The non-specific binding was determined using mixtures which contained 10 micromolar triprolidine. The results were evaluated as in the studies of binding to the imipramine receptor.

A short description of data set [7]: Water solubility of the monohydrochloride. Format: physicochemical.

T1 sequence (P08483 whole entry): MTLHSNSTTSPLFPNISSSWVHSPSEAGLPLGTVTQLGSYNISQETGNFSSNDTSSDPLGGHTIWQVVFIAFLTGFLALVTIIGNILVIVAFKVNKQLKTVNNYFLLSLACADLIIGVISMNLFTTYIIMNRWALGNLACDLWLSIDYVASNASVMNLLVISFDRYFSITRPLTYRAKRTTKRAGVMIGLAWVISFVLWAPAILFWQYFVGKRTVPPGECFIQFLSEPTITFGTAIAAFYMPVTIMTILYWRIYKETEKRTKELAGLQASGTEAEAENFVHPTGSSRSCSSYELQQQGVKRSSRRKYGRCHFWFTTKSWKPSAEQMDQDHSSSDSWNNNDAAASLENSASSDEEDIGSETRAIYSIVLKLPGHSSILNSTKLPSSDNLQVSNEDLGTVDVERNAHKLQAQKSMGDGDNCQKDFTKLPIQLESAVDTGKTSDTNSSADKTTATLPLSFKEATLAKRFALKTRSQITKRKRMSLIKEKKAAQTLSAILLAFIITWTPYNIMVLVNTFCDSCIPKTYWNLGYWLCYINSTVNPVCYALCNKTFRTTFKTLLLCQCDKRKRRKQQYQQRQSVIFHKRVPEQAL

For orientation: ED50 means the midpoint of the dose-response relation. Turning to `CN1[C@@H]2CC[C@H]1C[C@@H](OC(=O)C(CO)c1ccccc1)C2` (stereo partly shown) [F, atropine, reference compound], in [1], the ED50 was 0.02 µmol/kg.

The term IC50 denotes the concentration at which inhibition is half-maximal. In the case of `CCN(CC)CC1CCCCN1CCCCN1c2ccccc2C(=O)Nc2cccnc21` (stereo not shown) [B, 11-[4-[2-[(diethylamino)methyl]-1-piperidinyl]butyl]-5,11-dihydro-6H-pyrido[2,3-b][1,4]benzodiazepin-6-one], the ED50 in [2] is 0.646 µmol/kg; in data set [1], 0.468 µmol/kg; on M2, 0.0398 µmol/kg; on M1, 0.676 µmol/kg; in data set [5] it was above 10 µmol/kg; in the data set on secretion of saliva, 3.16 µmol/kg. Besides, the IC50 came to 80 nM in data set [3], 20 nM in [4], 2 nM in data set [6] and 9000 nM on histamine-H1 receptor. Also, the “Selectivity factor [drawing 24]” value in data set [3] is given as 40. The “Selectivity factor [drawing 25]” value in [4] is 10. In data set [6], the “potency compared with compound D” value is on record as “considerably higher potency”.

As for `CCN(CC)CC1CCCCN1CC#CCN1c2ccccc2C(=O)Nc2cccnc21` (stereo not shown) [C, 11-[4-[2-[(diethylamino)methyl]-1-piperidinyl]but-2-ynyl]-5,11-dihydro-6H-pyrido[2,3-b][1,4]benzodiazepin-6-one], the ED50 in data set [2] was 1.58 µmol/kg; in data set [1], 0.245 µmol/kg; on M2, 0.0302 µmol/kg; on M1 it was 1.1 µmol/kg; in data set [5], above 2.29 µmol/kg; with secretion of saliva, 7.59 µmol/kg. The results for the IC50 in data set [3], in [4] and in data set [6] were 700 nM, 200 nM and 18 nM, respectively. In addition, in data set [3], the “Selectivity factor [drawing 24]” value is 38.9. Also, in data set [4], the “Selectivity factor [drawing 25]” value is 11.1. Also, the “potency compared with compound D” value in data set [6] is recorded as “considerably higher potency”.

As for `O=C1Nc2cccnc2N(CCCCCCN2CCCCC2)c2ccccc21` [A, 5,11-dihydro-11-[6-(1-piperidinyl)hexyl]-6H-pyrido[2,3-b][1,4]benzodiazepin-6-one], the ED50 in data set [2] was 0.0851 µmol/kg; in [1], 0.0661 µmol/kg; at M2 it was 0.011 µmol/kg; at M1, 0.295 µmol/kg; in data set [5], 1.29 µmol/kg; with secretion of saliva, 0.447 µmol/kg. The IC50 in [3] turned out to be 10 nM; in [4] it was 4 nM; in [6], 0.6 nM. For the same compound, the “Selectivity factor [drawing 24]” value in [3] worked out at 16.7. In addition, the “Selectivity factor [drawing 25]” value in data set [4] is recorded as 6.7. In addition, the “potency compared with compound D” value in [6] is “considerably higher potency”.

Consider `CCN(CC)CC1CCCCN1CC(=O)N1c2ccccc2C(=O)Nc2cccnc21` (stereo not shown) [D, 11-[[2-[(diethylamino)methyl]-1-piperidinyl]acetyl]-5,11-dihydro-6H-pyrido[2,3-b][1,4]benzodiazepin-6-one, reference compound], for which the ED50 in the data set with secretion of saliva is 10 µmol/kg.

With `Cl.O=C1Nc2ccccc2N(CCCCCCN2CCCCCC2)c2ccccc21` [Example 16, 5,10-Dihydro-5-[6-(hexahydro-1H-1-azepinyl)hexyl]-11H-dibenzo[b,e][1,4]diazepin-11-one hydrochloride], the “water solubility (monohydrochloride)” value in data set [7] is “sparingly soluble in water”.
